Experimental data from patent publication US12077503B2, “Substituted cyclic amides and their use as herbicides” (FMC CORPORATION, priority 2015, dated 2024).

Key:
Assay type in all cases: in vivo
Kochia (Kochia scoparia) [1] = test: Test A preemergence; conditions: Bassia scoparia, pre-emergence, 240 h, 0 to 100 scale where 0 is no effect and 100 is complete control, read-out: Kochia plant response rating
Summary of the method: (§1)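 Greenhouse, ~10 d after spray; visual injury vs untreated controls, 0 = no effect, 100 = complete control. Preemergence: directed soil spray over planted seeds. Postemergence: plants 2–10 cm, 1–2 leaf stage. Loam/sand blend. Compound in non-phytotoxic solvent with surfactant.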

[2] = system: barnyardgrass (Echinochloa crus-galli); test: Test A preemergence; conditions: Echinochloa crus-galli, pre-emergence, 240 h, 0 to 100 scale where 0 is no effect and 100 is complete control, read-out: Barnyardgrass plant response rating
Summary of the method: as §1

[3] = system: giant foxtail (Setaria faberii); test: Test A preemergence; conditions: Setaria faberi, pre-emergence, 240 h, 0 to 100 scale where 0 is no effect and 100 is complete control, read-out: Foxtail, Giant plant response rating
Summary of the method: as §1

[4] = system: pigweed (Amaranthus retroflexus); test: Test A preemergence; conditions: Amaranthus retroflexus, pre-emergence, 240 h, 0 to 100 scale where 0 is no effect and 100 is complete control, read-out: Pigweed plant response rating
[5] = system: ragweed (common ragweed, Ambrosia elatior); test: Test A preemergence; conditions: Ambrosia artemisiifolia, pre-emergence, 240 h, 0 to 100 scale where 0 is no effect and 100 is complete control, read-out: Ragweed plant response rating
Summary of the method: as §1

[6] = system: ryegrass, Italian (Italian ryegrass, Lolium multiflorum); test: Test A preemergence; conditions: Lolium multiflorum, pre-emergence, 240 h, 0 to 100 scale where 0 is no effect and 100 is complete control, read-out: Ryegrass, Italian plant response rating
Summary of the method: as §1

[7] = system: Galium (catchweed bedstraw, Galium aparine); test: Test A postemergence; conditions: Galium, post-emergence, 240 h
Summary of the method: as §1

Kochia (Kochia scoparia) [8] = test: Test A postemergence; conditions: Bassia scoparia, post-emergence, 240 h
Summary of the method: as §1

[9] = system: barnyardgrass (Echinochloa crus-galli); test: Test A postemergence; conditions: Echinochloa crus-galli, post-emergence, 240 h
Summary of the method: as §1

[10] = system: blackgrass (Alopecurus myosuroides); test: Test A postemergence; conditions: Alopecurus myosuroides, post-emergence, 240 h
Summary of the method: as §1

corn (Zea mays) = test: Test A postemergence; conditions: Zea mays, post-emergence, 240 h
Summary of the method: as §1

[11] = system: giant foxtail (Setaria faberii); test: Test A postemergence; conditions: Setaria faberi, post-emergence, 240 h
Summary of the method: as §1

[12] = system: pigweed (Amaranthus retroflexus); test: Test A postemergence; conditions: Amaranthus retroflexus, post-emergence, 240 h
Summary of the method: as §1

[13] = system: ragweed (common ragweed, Ambrosia elatior); test: Test A postemergence; conditions: Ambrosia artemisiifolia, post-emergence, 240 h
Summary of the method: as §1

[14] = system: ryegrass, Italian (Italian ryegrass, Lolium multiflorum); test: Test A postemergence; conditions: Lolium multiflorum, post-emergence, 240 h
Summary of the method: as §1

[15] = system: wheat (Triticum aestivum); test: Test A postemergence; conditions: Triticum aestivum, post-emergence, 240 h
Summary of the method: as §1

[16] = system: barnyardgrass (Echinochloa crus-galli); test: Test B flooded paddy test; conditions: Echinochloa crus-galli, 250 g ai/ha, Flood; 0 to 100 scale where 0 is no effect and 100 is complete control; read-out: Barnyardgrass plant response rating
Summary of the method: (§2)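 Flooding to 3 cm over soil accompanied treatment, which consisted of adding compound to the standing water around 2-leaf plants; depth was then maintained. Visual assessment versus controls followed at 13 to 15 d (scale 0–100, 0 meaning no effect).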

[17] = system: ducksalad (Heteranthera limosa); test: Test B flooded paddy test; conditions: Heteranthera limosa, 250 g ai/ha, Flood; 0 to 100 scale where 0 is no effect and 100 is complete control; read-out: Ducksalad plant response rating
Summary of the method: as §2

rice (Oryra sativa) = test: Test B flooded paddy test; conditions: Oryza sativa, 250 g ai/ha, Flood; 0 to 100 scale where 0 is no effect and 100 is complete control; read-out: Rice plant response rating
Summary of the method: as §2

[18] = system: sedge, umbrella (small-flower umbrella sedge, Cyperus difformis); test: Test B flooded paddy test; conditions: Cyperus difformis, 250 g ai/ha, Flood; 0 to 100 scale where 0 is no effect and 100 is complete control; read-out: Sedge, Umbrella plant response rating
Summary of the method: as §2

[19] = 125 g ai/ha, preemergence, approx. 10 d

In the case of `C=C(C)c1ccc([C@H]2CN(C)C(=O)[C@@H]2C(=O)Nc2ccc(F)c(F)c2F)cc1` [Compound 1148], the pest or weed control at 31 g/ha (Kochia (Kochia scoparia) [1]; 31 g ai/ha, Preemergence) is reported as 0%, the pest or weed control at 125 g/ha (Kochia (Kochia scoparia) [1]; [19]) is reported as 0% and the pest or weed control at 31 g/ha ([2]; 31 g ai/ha, Preemergence) is reported as 30%. For the same molecule, the pest or weed control at 125 g/ha [2, 19] was 90%, the pest or weed control at 31 g/ha ([3]; 31 g ai/ha, Preemergence) was 90% and the pest or weed control at 125 g/ha [3, 19] was 90%. For the same molecule, the pest or weed control at 31 g/ha ([4]; 31 g ai/ha, Preemergence) was 0%, the pest or weed control at 125 g/ha [4, 19] was 0% and the pest or weed control at 31 g/ha ([5]; 31 g ai/ha, Preemergence) was 0%. The pest or weed control at 125 g/ha [5, 19] was 0%, the pest or weed control at 31 g/ha ([6]; 31 g ai/ha, Preemergence) was 0% and the pest or weed control at 125 g/ha [6, 19] was 20%. For the same molecule, the pest or weed control at 125 g/ha ([7]; 125 g ai/ha, postemergence, visual injury on 0 to 100 scale (0 no effect, 100 complete control), approx. 10 d, read-out: Galium plant response rating) was 40%, the pest or weed control at 31 g/ha ([7]; Postemergence, 31 g ai/ha, visual injury after approx. 10 d, 0 to 100 scale, 0 no effect, 100 complete control, read-out: Plant response rating, Galium) was 0% and the pest or weed control at 125 g/ha (Kochia (Kochia scoparia) [8]; 125 g ai/ha, postemergence, visual injury on 0 to 100 scale (0 no effect, 100 complete control), approx. 10 d, read-out: Kochia plant response rating) was 0%. The pest or weed control at 31 g/ha (Kochia (Kochia scoparia) [8]; Postemergence, 31 g ai/ha, visual injury after approx. 10 d, 0 to 100 scale, 0 no effect, 100 complete control, read-out: Plant response rating, Kochia) was 0%, the pest or weed control at 125 g/ha ([9]; 125 g ai/ha, postemergence, visual injury on 0 to 100 scale (0 no effect, 100 complete control), approx. 10 d, read-out: Barnyardgrass plant response rating) was 80% and the pest or weed control at 31 g/ha ([9]; Postemergence, 31 g ai/ha, visual injury after approx. 10 d, 0 to 100 scale, 0 no effect, 100 complete control, read-out: Plant response rating, Barnyardgrass) was 50%. The pest or weed control at 125 g/ha ([10]; 125 g ai/ha, postemergence, visual injury on 0 to 100 scale (0 no effect, 100 complete control), approx. 10 d, read-out: Blackgrass plant response rating) was 20%, the pest or weed control at 31 g/ha ([10]; Postemergence, 31 g ai/ha, visual injury after approx. 10 d, 0 to 100 scale, 0 no effect, 100 complete control, read-out: Plant response rating, Blackgrass) was 0% and the plant injury at 125 g/ha (corn (Zea mays); 125 g ai/ha, postemergence, visual injury on 0 to 100 scale (0 no effect, 100 complete control), approx. 10 d, read-out: Corn plant response rating) was 0%. It also gave a Corn plant response rating (crop injury, 0 = no effect, 100 = complete kill) at 31 g/ha (corn (Zea mays); Postemergence, 31 g ai/ha, visual injury after approx. 10 d, 0 to 100 scale, 0 no effect, 100 complete control) of 0%, a pest or weed control at 125 g/ha ([11]; 125 g ai/ha, postemergence, visual injury on 0 to 100 scale (0 no effect, 100 complete control), approx. 10 d, read-out: Foxtail, Giant plant response rating) of 80% and a pest or weed control at 31 g/ha ([11]; Postemergence, 31 g ai/ha, visual injury after approx. 10 d, 0 to 100 scale, 0 no effect, 100 complete control, read-out: Plant response rating, Foxtail, Giant) of 50%. The pest or weed control at 125 g/ha ([12]; 125 g ai/ha, postemergence, visual injury vs untreated controls after approx. 10 d, 0 = no effect, 100 = complete control, read-out: Pigweed plant response rating (0 to 100 scale)) was 20%, the pest or weed control at 31 g/ha ([12]; Postemergence, 31 g ai/ha, visual injury after approx. 10 d, 0 to 100 scale, 0 no effect, 100 complete control, read-out: Plant response rating, Pigweed) was 0% and the pest or weed control at 125 g/ha ([13]; 125 g ai/ha, postemergence, visual injury vs untreated controls after approx. 10 d, 0 = no effect, 100 = complete control, read-out: Ragweed plant response rating (0 to 100 scale)) was 0%. The pest or weed control at 31 g/ha ([13]; Postemergence, 31 g ai/ha, visual injury after approx. 10 d, 0 to 100 scale, 0 no effect, 100 complete control, read-out: Plant response rating, Ragweed) was 0%, the pest or weed control at 125 g/ha ([14]; 125 g ai/ha, postemergence, visual injury vs untreated controls after approx. 10 d, 0 = no effect, 100 = complete control, read-out: Ryegrass, Italian plant response rating (0 to 100 scale)) was 0% and the pest or weed control at 31 g/ha ([14]; Postemergence, 31 g ai/ha, visual injury after approx. 10 d, 0 to 100 scale, 0 no effect, 100 complete control, read-out: Plant response rating, Ryegrass, Italian) was 0%. It also gave a plant injury at 125 g/ha ([15]; 125 g ai/ha, postemergence, visual injury vs untreated controls after approx. 10 d, 0 = no effect, 100 = complete control, read-out: Wheat plant response rating (0 to 100 scale)) of 0%, a plant injury at 31 g/ha ([15]; Postemergence, 31 g ai/ha, visual injury after approx. 10 d, 0 to 100 scale, 0 no effect, 100 complete control, read-out: Plant response rating, Wheat) of 0% and a pest or weed control at 250 g/ha [16] of 50%. For the same molecule, the pest or weed control at 250 g/ha [17] was 70%, the pest or weed control at 250 g/ha (rice (Oryra sativa)) was 60% and the pest or weed control at 250 g/ha [18] was 0%.
